One assay relates to ABCD1-KO mice. Put plainly: In vivo X-ALD mouse, 90 days: VLCFA (C26:0) in spinal cord. The note with it: male ABCD1-KO mice, 75 mg/kg oral gavage twice a day, FIG. 13. How it is done: Male ABCD1-KO mice (n=8) were treated with oral gavage of PXL770 (75 mg/kg) twice a day, every day for 90 days. Untreated ABCD1-KO mice (n=8) and wild-type (WT) mice (n=8) served as controls. Post-treatment mice were sacrificed and spinal cord was collected for VLCFA analysis. The analysis was performed according to the standardized protocols of the Lipidomics Core Facility and data are expressed as VLCFA μg/ml levels. Hexacosanoic acid (C26:0) was selected as representative for VLCFAs.

Assay [1] relates to ABCD2. In words: Western blot of ABCD2 expression in AMN fibroblasts. The following applies: AMN fibroblasts, 5, 10, 25 μM, vs control and untreated AMN fibroblasts; FIG. 2. The assay is classed as cell-based, human. The method, then:
More specifically, protein extraction was performed as follows.
(§1) The cells were washed with cold Tris-buffered saline (20 mM Trizma base and 137 mM NaCl, pH 7.5) and lysed in 1×SDS sample-loading buffer (62.5 mM Trizma base, 2% [w/v] SDS, 10% glycerol), and after sonication and centrifugation at 15,000 g for 5 min, the supernatant was used for the immunoblot assay. The protein concentration of samples was determined with the detergent compatible protein assay reagent (Bio-Rad) using BSA as the standard. The sample was boiled for 3 min with 0.1 volumes of 10% β mercaptoethanol and 0.5% bromphenol blue mix. Then, 40 μg of total cellular protein was resolved by electrophoresis on 8 or 12% polyacrylamide gels, electrotransferred and blocked with Tween 20-containing Tris-buffered saline (TBST; 10 mM Trizma base, pH 7.4, 1% Tween 20, and 150 mM NaCl) with 5% skim milk. After incubation with antibodies against ABCD2, ABCD3, and (β-actin at 4^0 overnight, the membranes were then washed with TBST and incubated with horseradish peroxidase-conjugated anti-rabbit or mouse IgG for 1 h at room temperature. The membranes were detected by autoradiography using ECL-plus (Amersham Biosciences) after washing with TBST buffer.
(§2) The experiments described in Examples 4 and 6 were performed with metformin by the same lab and described by Singh et al. in Journal of Neurochemistry, 2016; 138, 86-100.

In assay [2] the test system is ALD-KO mouse-mixed glial cells. Put plainly: Hexacosanoic acid (VLCFA) level in ALD-KO mouse mixed glial cells. Format: cell-based. The following applies: 25 μM, FIG. 3. The method, then:
The inventors carried out a study of the measurement of VLCFA accumulation in AMN mouse-mixed glial cells when they are not undergoing any treatment and when they are treated with PXL770 at different doses.
C57BL6 mouse breeding pairs were purchased from Jackson Laboratory (Bar Harbor, ME) and maintained at the Henry Ford Health System (HFHS) animal facility. All animal procedures were approved by the HFHS Animal Review Committee and all animals received humane care in compliance with the HFHS experimental guidelines and the National Research Council's criteria for humane care (Guide for Care and Use of Laboratory Animals). Mouse with Abcd1 gene knocked-out were raised and used to extract mixed glial cells. Primary astrocyte-enriched cultures were prepared from the whole cortex of 1-day-old C57BL/6 mice. Briefly, the cortex was rapidly dissected in ice-cold calcium/magnesium-free HBSS at pH 7.4 as described previously. The tissue was minced, incubated in HBSS containing trypsin (2 mg/ml) for 20 min, and washed twice in plating medium containing 10% FBS and 10 μg/ml gentamicin and then disrupted by triturating through a Pasteur pipette, after which cells were seeded in 75-cm^2 culture flasks (Falcon, Franklin, NJ). […]
Hexacosanoic acid level in six groups of mixed glial cells was measured. […]

For assay [3], the system named is ABCD2. Put plainly: Western blot of ABCD2 expression in ALD-KO mouse brain cortex mixed glial cells. Format: cell-based. The note with it: vs non-treated, FIG. 4. How it is done: as §1
The same experimental protocol as in example 4 was performed for ALD-KO mouse brain cortex mixed glial cells. This model is mainly a model for AMN. […]
Background: In western blotting, separated proteins are transferred to a membrane and probed.

Assay [4] concerns ALD patient-derived lymphocytes. In words: Hexacosanoic acid (VLCFA) level in ALD patient-derived lymphocytes. Format: cell-based, human. How it is done: After studies on cells from patients with the […] of ALD (AMN) the inventors replicated the same study method as in example 1 to analyze the effect of PXL770 on cells from X-ALD patients (severe inflammatory phenotype).
The experiments described in Examples 3 and 7 were performed with metformin by the same lab and described by Singh et al. in Journal of Neurochemistry, 2016; 138, 86-100.

The subject of assay [5] is ABCD2. In words: Western blot of ABCD2 expression in ALD patient fibroblasts. Format: cell-based, human. The following applies: especially at low concentration (5 μM), FIG. 6. The method, then: as §2
The mark [6] stands for this setting: ALD lymphocytes, increasing concentrations, FIG. 5.

Turning to `O=c1[nH]c2sc(Cl)c(-c3ccc4c(c3O)CCCC4)c2c([O-])c1-c1ccccc1.[K+]` [PXL770, monohydrate potassium salt of 2-chloro-4-hydroxy-3-(5-hydroxytetralin-6-yl)-5-phenyl-7H-thieno[2,3-b]pyridin-6-one], the “VLCFA accumulation in the spinal cord” value in the assay with ABCD1-KO mice is listed as “significantly reduces”. The “expression of ABCD2 (Western blot)” value in the assay with ABCD2 [1], with ABCD2 [3] and in the assay with ABCD2 [5] was “overexpression” each time. The “accumulation of hexacosanoic acid” value in assay [2] is “decreases”. Further, in assay [4] (setting [6]), the “level of hexacosanoic acid” value is recorded as “decreases”. Besides, in assay [4] (setting [6]), the “level of hexacosanoic acid compared to healthy controls” value is reported as “same level as that present in lymphocytes of healthy controls”. In assay [4] (ALD patient cells, 5 μM), the “VLCFA content, normalization” value was “normalization effect”.

The record behind these values is patent US11850238B2, “Use of a thienopyridone derivative in the treatment of adrenoleukodystrophy or adrenomyeloneuropathy” (POXEL, priority 2020, dated 2023).
